Assay results: ChEMBL document CHEMBL2202954, “The effect of PLC-γ2 inhibitors on the growth of human tumour cells” (2012)

How the values were obtained:
Assay type in all cases: functional
K562 = experiment: Cytotoxicity against human K562 cells assessed as cellular growth at 10 uM by SRB assay
COLO 205 = experiment: Cytotoxicity against human COLO205 cells assessed as cellular growth at 10 uM by SRB assay
MDA-MB-231 = experiment: Cytotoxicity against human MDA-MB-231 cells assessed as cellular growth at 10 uM by SRB assay
A549 = experiment: Cytotoxicity against human A549 cells assessed as cellular growth at 10 uM by SRB assay
NCI-H460 = experiment: Cytotoxicity against human NCI-H460 cells assessed as cellular growth at 10 uM by SRB assay
OVCAR-8 = experiment: Cytotoxicity against human OVCAR8 cells assessed as cellular growth at 10 uM by SRB assay
SK-MEL-5 = experiment: Cytotoxicity against human SK-MEL-5 cells assessed as cellular growth at 10 uM by SRB assay
MOLT-4 = experiment: Cytotoxicity against human MOLT4 cells assessed as cellular growth at 10 uM by SRB assay
OVCAR-4 = experiment: Cytotoxicity against human OVCAR4 cells assessed as cellular growth at 10 uM by SRB assay
DU-145 = experiment: Cytotoxicity against human DU145 cells assessed as cellular growth at 10 uM by SRB assay
SK-OV-3 = experiment: Cytotoxicity against human SKOV3 cells assessed as cellular growth at 10 uM by SRB assay
MDA-MB-435 = experiment: Cytotoxicity against human MDA-MB-435 cells assessed as cellular growth at 10 uM by SRB assay
MDA-MB-468 = experiment: Cytotoxicity against human MDA-MB-468 cells assessed as cellular growth at 10 uM by SRB assay
SK-MEL-2 = experiment: Cytotoxicity against human SK-MEL-2 cells assessed as cellular growth at 10 uM by SRB assay
Malme-3M = experiment: Cytotoxicity against human MALME-3M cells assessed as cellular growth at 10 uM by SRB assay
HCT-116 = experiment: Cytotoxicity against human HCT116 cells assessed as cellular growth at 10 uM by SRB assay
OVCAR-5 = experiment: Cytotoxicity against human OVCAR5 cells assessed as cellular growth at 10 uM by SRB assay
HOP-62 = experiment: Cytotoxicity against human HOP62 cells assessed as cellular growth at 10 uM by SRB assay
IGROV-1 = experiment: Cytotoxicity against human IGROV1 cells assessed as cellular growth at 10 uM by SRB assay

Compound | Activity (K562) [%] | Activity (COLO 205) [%] | Activity (MDA-MB-231) [%] | Activity (A549) [%] | Activity (NCI-H460) [%] | Activity (OVCAR-8) [%] | Activity (SK-MEL-5) [%] | Activity (MOLT-4) [%] | Activity (OVCAR-4) [%] | Activity (DU-145) [%] | Activity (SK-OV-3) [%] | Activity (MDA-MB-435) [%] | Activity (MDA-MB-468) [%] | Activity (SK-MEL-2) [%] | Activity (Malme-3M) [%] | Activity (HCT-116) [%] | Activity (OVCAR-5) [%] | Activity (HOP-62) [%] | Activity (IGROV-1) [%]
Cc1ccc(C2=N/C(=C\c3ccccc3)C(=O)O2)cc1 | 106.22 | 122.06 | 105.18 | 107.01 | 109.3 | 102.69 | 105.32 | 91.17 | 108.84 | 106.2 | 109.52 | 102.12 | 99.59 | 108.55 | 105.62 | 114.29 | 95.31 | 108.81 | 
Nc1c(C(=O)Nc2ccccc2)sc2nc3c(cc12)C(=O)CCC3 | 17.06 | -18.41 | 52.08 | 19.69 | 12.88 | 39.92 | 25.74 | 43.43 |  | 0.62 | 19.71 | -5.95 | 4.62 | 38.68 | 76.23 | 23.57 | 59.92 | 39.88 | 36.43
O=C(Nc1nc2ccc(Cl)cc2s1)c1ccc(Cl)cc1Cl | 86.31 | 114.96 | 114.66 | 95.4 | 100.4 | 97.79 | 89.76 | 93.88 |  | 108.4 | 105.26 | 94.59 | 105.42 | 116.07 | 109.41 | 105.32 | 98.11 | 106.54 | 103.26
Cc1cc(C)c(NC(=O)c2sc3nc4c(cc3c2N)C(=O)CCC4)c(C)c1 | 19.79 | -6.14 | 35.68 | 23.05 | 6.43 | 45.64 | 11.34 | 43.03 |  | 10.04 | 10.43 | -34.35 | -27.16 | 36.14 | 42.11 | 23.12 |  | 36.92 | 35.36
COc1cccc(C(=O)Nc2nc3ccc(Cl)cc3s2)c1 | 49 | 105.5 | 95.48 | 74.01 | 87.74 | 98.65 | 81.61 | 83.68 |  | 104.09 | 90.86 | 34 | 61.26 | 108.68 | 95.69 | 92.95 | 108.78 | 104.17 | 74.3
Clc1ccc(-c2nc(-c3cccs3)no2)cc1 | 101.77 | 113.89 | 81.39 | 94.07 | 110.35 | 106.56 | 90.07 | 86.35 | 65.77 | 119.78 | 106.04 | 111.2 | 3.37 | 116.4 |  | 92.37 | 108.26 | 97.84 | 
Cc1cc(C)c(NC(=O)c2sc3nc4c(cc3c2N)C(=O)CC(C)(C)C4)c(C)c1 | 90.16 | 117 | 115.09 | 96.6 | 102.63 | 107.09 | 89.79 | 100.05 |  | 127.81 | 116.6 | 97.97 | 85.24 | 119.22 | 92.73 | 99.79 | 100.8 | 111.49 | 95.36
Cc1ccc(S(=O)(=O)Oc2ccc(-c3cnc4ccccc4n3)cc2)cc1 | 84.2 | 135.44 | 111.87 | 95.53 | 97 | 96.94 | 84.98 | 89.3 |  | 114.58 | 104.03 | 96.62 | 107.13 | 127.78 | 122.99 | 106.69 | 102.67 | 114.36 | 119.02
CC1(C)CC(=O)c2cc3c(N)c(C(=O)Nc4ccc(F)cc4)sc3nc2C1 | 106.71 | 133.12 | 112.36 | 105.88 | 104.48 | 108.67 | 99.04 | 121.66 |  | 122.42 | 109.93 | 103.15 | 112.64 | 122.76 | 116.52 | 114.92 | 92.85 | 114.29 | 119.45
Clc1ccc(-c2nc(-c3cccs3)no2)c(Cl)c1 | 96.15 | 106.21 |  | 91.44 | 92.07 | 97.12 | 83.92 |  |  | 99.3 | 93.87 | 110.83 | 8.37 | 122.72 | 102.62 | 94.56 |  | 84.92 | 66.78
Cc1ccc(NC(=O)c2sc3nc4c(cc3c2N)C(=O)CCC4)cc1Cl | 92.98 | 127.7 | 113.04 | 100.84 | 106.36 | 103.45 | 101.61 | 107.73 |  | 108.78 | 113.94 | 99.15 | 104.98 | 112.11 | 112.49 | 105.04 | 100.98 | 110.02 | 105.54
COc1ccc(Cl)cc1C(=O)Nc1nc2ccc(Cl)cc2s1 | 86.76 | 82.83 | 70.89 | 76.66 | 93.65 | 88.9 | 92.79 | 95.65 |  | 94.89 | 91.86 | 97.59 | 76.66 | 103.7 | 83.31 | 53.23 | 124.2 | 89.42 | 65.9
Cc1cccc(-c2nc(-c3cccs3)no2)c1 | 94.59 | 111.56 | 76.61 | 100.01 | 94.9 | 98.72 | 82.84 | 96.35 |  | 120 | 94.86 | 110.16 | 40.25 | 100.25 | 112.31 | 96.5 |  | 79.48 | 61.64
COc1ccc2nc(NC(=O)c3ccc(F)cc3)sc2c1 | 82.42 | 115.29 | 116.29 | 47.59 | 19.56 | 94.61 | 89.97 | 87.45 |  | 105.68 | 104.34 | 96.73 | 102.55 | 143.55 | 92.36 | 95.31 | 97.79 | 108.23 | 98.94
O=c1/c(=C/c2ccccc2Cl)sc2nc(-c3ccccc3)nn12 | 48.93 | 113.47 | 90.97 | 87.55 | 99.8 | 97.99 | 93.49 | 69.85 |  | 92.88 | 104.04 | 78.08 | 96.99 | 100.14 | 92.95 | 72.43 | 119.68 | 103.3 | 96.71
